Data as given in ChEMBL document CHEMBL1201862, “PubChem BioAssay data set” (2004).
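Following 48 hours of exposure in 96-well plates, responses at five concentrations were used to interpolate endpoints linearly. GI50 is the concentration that inhibits growth by half.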 Activity calls are given as the source filed them. Cut-off read from the data, not from the text of the source: active = GI50 up to about 1.1 µM and inactive = higher.

What was measured:
Assay in all cases: growth of human tumour cells (NCI), 48 h
TK-10 = tested on: TK-10
NCI-H460 = tested on: NCI-H460
ACHN = tested on: ACHN
CCRF-CEM = tested on: CCRF-CEM
SNB-75 = tested on: SNB-75
NCI-H23 = tested on: NCI-H23
EKVX = tested on: EKVX
Hs-578T = tested on: Hs-578T
A549 = tested on: A549
NCI-H522 = tested on: NCI-H522
HCT-15 = tested on: HCT-15
OVCAR-3 = tested on: OVCAR-3
IGROV-1 = tested on: IGROV-1
OVCAR-5 = tested on: OVCAR-5
SF-539 = tested on: SF-539
SF-295 = tested on: SF-295
SW-620 = tested on: SW-620
MCF7 = tested on: MCF7
MDA-MB-231 = tested on: MDA-MB-231
A498 = tested on: A498

Row | Structure (SMILES) | GI50 (TK-10) | GI50 (NCI-H460) | GI50 (ACHN) | GI50 (CCRF-CEM) | GI50 (SNB-75) | GI50 (NCI-H23) | GI50 (EKVX) | GI50 (Hs-578T) | GI50 (A549) | GI50 (NCI-H522) | GI50 (HCT-15) | GI50 (OVCAR-3) | GI50 (IGROV-1) | GI50 (OVCAR-5) | GI50 (SF-539) | GI50 (SF-295) | GI50 (SW-620) | GI50 (MCF7) | GI50 (MDA-MB-231) | GI50 (A498)
1 | CCOC(=O)c1c(-c2ccccc2)c(-c2ccccc2)cn1C | > 10 µM (inactive) | > 10 µM (inactive) | > 10 µM (inactive) | > 10 µM (inactive) | > 10 µM (inactive) | > 10 µM (inactive) | > 10 µM (inactive) | 4.92 µM (inactive) | > 10 µM (inactive) | > 10 µM (inactive) | > 10 µM | > 10 µM (inactive) | > 10 µM (inactive) | > 10 µM (inactive) | > 10 µM (inactive) | > 10 µM (inactive) | – | – | – | –
2 | Cc1ccc(-n2c(=O)c3nn4c(=O)n(-c5ccc(C)cc5)c(=O)c4nn3c2=O)cc1 | > 100 µM (inactive) | > 100 µM (inactive) | > 100 µM (inactive) | > 100 µM (inactive) | 58.3 µM (inactive) | > 100 µM (inactive) | > 100 µM (inactive) | > 100 µM (inactive) | > 100 µM (inactive) | > 100 µM (inactive) | > 100 µM | > 100 µM (inactive) | > 100 µM (inactive) | > 100 µM (inactive) | > 100 µM (inactive) | > 100 µM (inactive) | > 100 µM (inactive) | > 100 µM (inactive) | – | –
3 | CC(C)(C)[Si](C)(C)OCC1OC(n2cnc3c(N)ncnc32)C2OC(=S)OC12 (stereo not given) | > 100 µM (inactive) | 32.7 µM (inactive) | – | 12.7 µM (inactive) | 29.3 µM (inactive) | 21.8 µM (inactive) | – | 41.5 µM (inactive) | – | – | 26.2 µM | 29.2 µM (inactive) | 25 µM (inactive) | 26.7 µM (inactive) | – | 37.4 µM (inactive) | 32.7 µM (inactive) | 34.6 µM (inactive) | 27.7 µM (inactive) | 52.7 µM (inactive)
4 | CCOC(=O)NC(C(F)(F)F)(C(F)(F)F)P(=O)(OC(C)C)OC(C)C | > 100 µM (inactive) | > 100 µM (inactive) | > 100 µM (inactive) | > 100 µM (inactive) | > 100 µM (inactive) | > 100 µM (inactive) | > 100 µM (inactive) | > 100 µM (inactive) | > 100 µM (inactive) | – | > 100 µM | > 100 µM (inactive) | > 100 µM (inactive) | > 100 µM (inactive) | > 100 µM (inactive) | > 100 µM (inactive) | > 100 µM (inactive) | > 100 µM (inactive) | > 100 µM (inactive) | –
5 | O=C1/C(=C/c2cccc([N+](=O)[O-])c2)CCCc2ccccc21 | 15.7 µM (inactive) | 18.5 µM (inactive) | 13.7 µM (inactive) | 2.93 µM (inactive) | 15.1 µM (inactive) | 15.8 µM (inactive) | 16 µM (inactive) | 3.94 µM (inactive) | 19.9 µM (inactive) | 4.74 µM (inactive) | 10.6 µM | 13.6 µM (inactive) | 11 µM (inactive) | 13.3 µM (inactive) | 15.3 µM (inactive) | 14.6 µM (inactive) | 4.76 µM (inactive) | 3.92 µM (inactive) | 17 µM (inactive) | –
6 | ClC1=NN=C(c2c[nH]c3ccccc23)CC1NCc1ccccc1 (stereo not given) | > 100 µM (inactive) | > 100 µM (inactive) | > 100 µM (inactive) | > 100 µM (inactive) | > 100 µM (inactive) | > 100 µM (inactive) | > 100 µM (inactive) | > 100 µM (inactive) | > 100 µM (inactive) | > 100 µM (inactive) | > 100 µM | > 100 µM (inactive) | 97.7 µM (inactive) | > 100 µM (inactive) | > 100 µM (inactive) | > 100 µM (inactive) | > 100 µM (inactive) | – | > 100 µM (inactive) | > 100 µM (inactive)
7 | O=C1CC(/C=C/c2ccco2)=C(O)C1=O | 22.5 µM (inactive) | 17.6 µM (inactive) | 15.9 µM (inactive) | 3 µM (inactive) | 16 µM (inactive) | 11.6 µM (inactive) | 15.7 µM (inactive) | 16.7 µM (inactive) | 23.9 µM (inactive) | 12.2 µM (inactive) | 13.5 µM | 13 µM (inactive) | 10.7 µM (inactive) | 13.9 µM (inactive) | 13.9 µM (inactive) | 19.5 µM (inactive) | 10.2 µM (inactive) | 7.01 µM (inactive) | 17.7 µM (inactive) | –
8 | C1CSCC2(COC2)CS1 | > 100 µM (inactive) | > 100 µM (inactive) | > 100 µM (inactive) | > 100 µM (inactive) | > 100 µM (inactive) | > 100 µM (inactive) | – | > 100 µM (inactive) | > 100 µM (inactive) | > 100 µM (inactive) | – | – | – | – | – | > 100 µM (inactive) | > 100 µM (inactive) | > 100 µM (inactive) | – | > 100 µM (inactive)
9 | O=C(N/N=C(/c1ccccc1)C(F)(F)F)c1ccncc1 | > 100 µM (inactive) | > 100 µM (inactive) | – | 76 µM (inactive) | > 100 µM (inactive) | > 100 µM (inactive) | – | > 100 µM (inactive) | – | > 100 µM (inactive) | > 100 µM | > 100 µM (inactive) | > 100 µM (inactive) | > 100 µM (inactive) | – | > 100 µM (inactive) | – | > 100 µM (inactive) | – | > 100 µM (inactive)
10 | Oc1cccc(-c2ccc3c4c2O[C@H]2c5[nH]c6ccccc6c5C[C@@]5(O)[C@@H](C3)N(CC3CC3)CC[C@]425)c1 | 2.24 µM (inactive) | – | 2.23 µM (inactive) | 1.9 µM (inactive) | – | 2.3 µM (inactive) | 13.5 µM (inactive) | 1.74 µM (inactive) | 1.78 µM (inactive) | – | 1.67 µM | 2 µM (inactive) | 1.74 µM (inactive) | 1.96 µM (inactive) | 1.68 µM (inactive) | 1.82 µM (inactive) | 1.88 µM (inactive) | – | 2.17 µM (inactive) | –
11 | C=C1C(O)CC[C@]2(C)C1C1OC(C)(C)O[C@]13CC(=O)C(C)=C([C@H]1OC(C)(C)OC12)C3(C)C (stereo not given in full) | > 100 µM (inactive) | > 100 µM (inactive) | 92 µM (inactive) | > 100 µM (inactive) | > 100 µM (inactive) | > 100 µM (inactive) | > 100 µM (inactive) | – | > 100 µM (inactive) | – | > 100 µM | > 100 µM (inactive) | > 100 µM (inactive) | > 100 µM (inactive) | > 100 µM (inactive) | > 100 µM (inactive) | > 100 µM (inactive) | 65.8 µM (inactive) | > 100 µM (inactive) | 23.1 µM (inactive)
12 | CSc1ccc(-c2cc(-c3nc4ccccc4[nH]3)nc3[nH]c(-c4nc5ccccc5[nH]4)cc(=O)c23)cc1 | > 100 µM (inactive) | 52.1 µM (inactive) | 29.4 µM (inactive) | 73.6 µM (inactive) | 56.2 µM (inactive) | > 100 µM (inactive) | 27.1 µM (inactive) | > 100 µM (inactive) | > 100 µM (inactive) | > 100 µM (inactive) | > 100 µM | > 100 µM (inactive) | > 100 µM (inactive) | > 100 µM (inactive) | > 100 µM (inactive) | 86.1 µM (inactive) | – | 34 µM (inactive) | – | –
13 | COc1ccc(/N=C2/SC(=N/N=c3\sc4ccccc4n3C)S/C2=N/c2ccc(OC)cc2)cc1 | > 100 µM (inactive) | > 100 µM (inactive) | 36.8 µM (inactive) | – | 24.6 µM (inactive) | 41.9 µM (inactive) | > 100 µM (inactive) | 36.2 µM (inactive) | 20.4 µM (inactive) | 70.8 µM (inactive) | > 100 µM | > 100 µM (inactive) | > 100 µM (inactive) | > 100 µM (inactive) | > 100 µM (inactive) | 51.8 µM (inactive) | > 100 µM (inactive) | > 100 µM (inactive) | 2.97 µM (inactive) | –
14 | CCOC(=O)NNC(=O)NCCCCNC(=O)NNC(=O)OCC | > 100 µM (inactive) | > 100 µM (inactive) | > 100 µM (inactive) | > 100 µM (inactive) | 0.458 µM (active) | > 100 µM (inactive) | > 100 µM (inactive) | > 100 µM (inactive) | > 100 µM (inactive) | > 100 µM (inactive) | > 100 µM | > 100 µM (inactive) | > 100 µM (inactive) | > 100 µM (inactive) | > 100 µM (inactive) | > 100 µM (inactive) | > 100 µM (inactive) | – | > 100 µM (inactive) | > 100 µM (inactive)
15 | CN1Cc2cc(O)c(O)cc2C(O)C1 (stereo not given) | > 100 µM (inactive) | > 100 µM (inactive) | > 100 µM (inactive) | 34.8 µM (inactive) | > 100 µM (inactive) | > 100 µM (inactive) | > 100 µM (inactive) | > 100 µM (inactive) | > 100 µM (inactive) | 49.3 µM (inactive) | – | > 100 µM (inactive) | > 100 µM (inactive) | > 100 µM (inactive) | > 100 µM (inactive) | > 100 µM (inactive) | > 100 µM (inactive) | > 100 µM (inactive) | > 100 µM (inactive) | –
16 | O=c1n(-c2ccccc2)c(=O)n2n1C1C=CC2CCCCCC1 | > 100 µM (inactive) | > 100 µM (inactive) | > 100 µM (inactive) | > 100 µM (inactive) | > 100 µM (inactive) | > 100 µM (inactive) | > 100 µM (inactive) | 36.1 µM (inactive) | > 100 µM (inactive) | 22.8 µM (inactive) | > 100 µM | 4.99 µM (inactive) | > 100 µM (inactive) | > 100 µM (inactive) | > 100 µM (inactive) | > 100 µM (inactive) | > 100 µM (inactive) | > 100 µM (inactive) | > 100 µM (inactive) | –
